The values below come from ChEMBL document CHEMBL1150044, “Brominated polyacetylenes from the Philippines sponge Diplastrella sp” (J Nat Prod, 2003).

Structures are written as SMILES. Structures can show the parent of a compound that is named as a salt.

The target of the assay is Human immunodeficiency virus type 1 integrase (Human immunodeficiency virus 1, UniProt Q7ZJM1). The assay can be described thus: Inhibition of HIV1 recombinant integrase.
Human immunodeficiency virus type 1 integrase, sequence (Q7ZJM1 whole entry): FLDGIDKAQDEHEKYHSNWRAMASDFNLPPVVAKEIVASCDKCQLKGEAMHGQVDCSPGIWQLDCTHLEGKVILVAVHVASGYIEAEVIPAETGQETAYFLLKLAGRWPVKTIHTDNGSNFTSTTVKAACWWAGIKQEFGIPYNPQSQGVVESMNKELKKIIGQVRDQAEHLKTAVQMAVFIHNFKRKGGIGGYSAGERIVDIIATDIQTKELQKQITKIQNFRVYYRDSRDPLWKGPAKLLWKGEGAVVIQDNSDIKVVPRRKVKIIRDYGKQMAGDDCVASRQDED
For the compound `O=S(=O)(O)OCCC#CC#CCCCCC#CC#C/C=C/Br`, the IC50 is 78.3 µM.
With `O=S(=O)(O)OCC(O)C#CC#CCCCCCCC#C/C=C/Br` (stereo not drawn) the figure was 74.4 µM; with `OCC(O)C#CC#CCCCCCCC#C/C=C/Br` (stereo not drawn) [DIPLYNE A], over 155 µM.
With `OCC(O)C#CC#CCCCCCCC#C/C=C\Br` (stereo not drawn) [DIPLYNE B] the figure was over 155 µM; with `O=S(=O)(O)OCC(O)C#CC#CCCCCCCCC/C=C/Br` (stereo not drawn) [DIPLYNE C SULFATE], 73.7 µM.
With `OCC(O)C#CC#CCCCCCCCC/C=C/Br` (stereo not drawn) [DIPLYNE C] the figure was over 153 µM; with `OCC(O)C#CC#CCCCCC#CC#C/C=C/Br` (stereo not drawn) [DIPLYNE D], over 157 µM.
Regarding `OCC(O)C#CC#CCCCC/C=C/C#C/C=C/Br` (stereo not drawn) [DIPLYNE E], the IC50 was over 156 µM.

As usually defined, the IC50 is the point on the concentration scale where inhibition reaches its midpoint.
